Experimental data: patent US20250235545A1, “POLYPEPTIDE CONJUGATE AND USE THEREOF” (SHANGHAI CHIXI BIOMEDICAL TECHNOLOGY CO., LTD, priority 2024, published 2025)
In brackets after ≈: the same amount, converted by molar mass. Read-outs that look alike come from different tables or passages of the source. Where a SMILES comes first, the peptide text is derived from it. The star is where a group is joined. NEt(2-(20S-CPT-7-yl)ethyl) = CCN(CCc1c2c(nc3ccccc13)-c1cc3c(c(=O)n1C2)COC(=O)[C@]3(O)CC)*; Propanoyl(3-maleimido) = O=C1C=CC(=O)N1CCC(=O)*; PEG6 = NCCOCCOCCOCCOCCOCCOCCC(=O)O

Tests used:
[1] = system: sarcoma SJSA-1 tumor model
Experimental: Test objective: To investigate the antitumor efficacy of the above compounds in an animal tumor model of sarcoma SJSA-1.
(§1) Test drug: Polypeptide conjugate, Irinotecan, Belotecan and normal saline control group.
(§2) Test animals: 6-8 weeks old BALB/c mice, all female.
(§3) SJSA-1 cells were purchased from ATCC and cultured in a DMEM medium containing 10% fetal bovine serum at 37° C. in 5% CO2. Passaging was performed every three days, and cells within 15 generations were used. 2×10^7 corresponding cells were injected into right chests of nude mice subcutaneously. After a volume of the tumors reached at least 100 mm^3, the mice were grouped randomly, with three mice in each group. Then treatment was started, and the day when the treatment was started was the first day. […] The control group was administered with normal saline. Administration was performed once a week for three weeks.
as §3

[2] = MTD determination in mice (Examples 27, 36, 44); assay type: in vivo; details: female, mouse, in vivo
Source text: Test animals: 6-8 weeks old mice, all female; mice were grouped randomly, with six mice in each group, administered with drugs at different concentration gradients separately and monitored for 14 d. A mouse was euthanized at a loss of 20% of its initial weight and deemed to have died of poisoning.

[3] = system: colo320 (colorectal cancer tissue); assay: cells; assay type: cell-based; details: Homo sapiens, COLO 320; CCK8, 48 h; Table 6
Experimental: (§4) Different types of cells were cultured with complete media (RPMI1640 (DMEM high sugar medium)+10% fetal bovine serum+1×P/S+sodium pyruvate 1 mM solution) in an incubator at 37° C. and 5% CO2 until the cells grew to a sufficient number, and the cells were collected, centrifuged at 1,000 g for 5 min, resuspended with an appropriate volume of a 10% RMPI1640 (DMEM high sugar medium) medium and adjusted to an appropriate density. In a 96-well culture plate, 100 μL of cell culture fluid containing different concentrations of drugs was added, control wells (0.1% DMSO) with only corresponding drug solvents without drugs, as well as blank wells (Blank) with only the medium but without cells were set, and three parallel wells were set in each group. After that, the cells after cell counting were inoculated onto 96-well culture plates, with 100 μL of cell suspension per well, and an inoculation concentration of the cells was 5,000 cells (100 μL)/well. The plates were then cultured in a CO2 (5%) incubator at 37° C. for 48 h. After 48 h, 10 μL of a cell proliferation staining reagent (CCK8) was added to each well, the plates were incubated in a cell incubator for around 2 h, and an absorbance at 450 nm was detected.
(§5) Cell survival rates and median inhibitory concentrations (IC50) of the drugs on the cells were calculated.

[4] = system: colo320 colorectal cancer tumor model
Experimental: Test objective: To investigate the antitumor efficacy of the above compounds in an animal tumor model of colo320 colorectal cancer.
as §1, §2
as §3, with “Passaging” for “SJSA-1 cells were purchased from ATCC and cultured in a DMEM medium containing 10% fetal bovine serum at 37° C. in 5% CO2. Passaging”, “used. 7.5×10^6” for “used. 2×10^7”, “least 120” for “least 100”, “for four” for “for three”

[5] = system: SKBR3 (breast cancer tissue); assay: cells; assay type: cell-based; details: Homo sapiens, SK-BR-3, CCK8, 48 h
Experimental: as §4, with “serum+1XP/S+sodium” for “serum+1×P/S+sodium”, “counted.” for “adjusted to an appropriate density.”
(§6) Cell survival rates and median inhibitory concentrations of the drugs on the cells were calculated.
as §4, §5

[6] = system: A549 (non-small cell lung cancer); assay: cells; assay type: cell-based; details: Homo sapiens, A549, CCK8, 48 h
Experimental: as §4, with “serum+1XP/S+sodium” for “serum+1×P/S+sodium”, “counted.” for “adjusted to an appropriate density.”
as §6, §4, §5

A2780 (ovarian cancer) = assay: cells; assay type: cell-based; details: Homo sapiens, A2780, CCK8, 48 h
Experimental: as §4, with “serum+1XP/S+sodium” for “serum+1×P/S+sodium”, “counted.” for “adjusted to an appropriate density.”
as §6, §4, §5

SJSA-1 (sarcoma tissue) = assay: cells; assay type: cell-based; details: Homo sapiens, SJSA-1, CCK8, 48 h
Experimental: as §4, with “serum+1XP/S+sodium” for “serum+1×P/S+sodium”, “counted.” for “adjusted to an appropriate density.”
as §6, §4, §5

[7] = Tumor homogenate activation efficiency, small cell lung cancer tissue (Example 28); assay type: in vitro ADME; details: pH 5.0, 37° C., 2 h; Table 5
Experimental: (§7) Buffer preparation: 50 mM PH buffer (MES), 250 mM NaCl, pH adjusted to 5.0 with 0.5 M of sodium hydroxide.
(§8) The polypeptide conjugate was prepared into a 1 mg/ml solution with pH 5.0 buffer, 100 μg of tumor tissue homogenate was added, (the tumor tissue homogenate was the homogenate of tumor tissues prepared with a Jingxin F6/10 handheld homogenizer), and the solution was placed at 37° C. for 2 h. The tumor tissue homogenate could effectively activate the polypeptide conjugate and release Belotecan, and the activation efficiencies of the drugs in tumor tissues were compared by high-performance liquid chromatography (HPLC) allowing determination of a decrease in the compounds and an increase in Belotecan:
(§9) Release percentage=peak area of Belotecan/total peak area of Belotecan and all other Belotecan-containing compounds

[8] = Tumor homogenate activation efficiency, non-small cell lung cancer tissue (Examples 28, 37); assay type: in vitro ADME; details: pH 5.0, 37° C., 2 h; Table 5
Experimental: as §7, §8, §9
as §8, with “HPLC” for “high-performance liquid chromatography (HPLC)”, “Belotecan: […]” for “Belotecan:”

[9] = Tumor homogenate activation efficiency, ovarian cancer tissue (Examples 28, 37); assay type: in vitro ADME; details: pH 5.0, 37° C., 2 h; Table 5
Experimental: as §7, §8, §9
as §8, with “HPLC” for “high-performance liquid chromatography (HPLC)”, “Belotecan: […]” for “Belotecan:”

[10] = Homogenate activation efficiency, heart tissue (Examples 28, 37); assay type: in vitro ADME; details: pH 5.0, 37° C., 2 h; Table 5
[11] = Tumor homogenate activation efficiency, breast cancer tissue (Examples 28, 37); assay type: in vitro ADME; details: pH 5.0, 37° C., 2 h; Table 5
Experimental: as §7, §8, §9
as §8, with “HPLC” for “high-performance liquid chromatography (HPLC)”, “Belotecan: […]” for “Belotecan:”

[12] = Tumor homogenate activation efficiency, sarcoma tissue (Examples 28, 37); assay type: in vitro ADME; details: pH 5.0, 37° C., 2 h; Table 5
Experimental: as §7, §8, §9
as §8, with “HPLC” for “high-performance liquid chromatography (HPLC)”, “Belotecan: […]” for “Belotecan:”

[13] = 15 mg/kg once a week for three weeks, Table 2
[14] = 15 mg/kg once a week for three weeks, Table 7
[15] = 15 mg/kg once a week for four weeks, Table 3
[16] = 15 mg/kg once a week for four weeks, Table 8
[17] = Table 13 (Example 42), dose 15 mg/kg, once a week for four weeks, BALB/c mice
[18] = Table 14 (Example 43), dose 15 mg/kg, once a week for four weeks, BALB/c mice
[19] = 45 mg/kg once a week for three weeks, Table 2
[20] = 45 mg/kg once a week for four weeks, Table 3
[21] = Table 14 (Example 43), dose 45 mg/kg, once a week for four weeks, BALB/c mice

CCc1c2c(nc3ccc(OC(=O)N4CCC(N5CCCCC5)CC4)cc13)-c1cc3c(c(=O)n1C2)COC(=O)[C@]3(O)CC [Irinotecan, reference compound]
Mouse weight (%) [1, 13]: +17% | SJSA-1 (sarcoma) Growth rate (%) [1, 13]: 798.05% | Mouse weight (%) [1, 14]: +17% | SJSA-1 (sarcoma tissue) growth rate (%) [1, 14]: 798.05% | MTD ([2]; 'around', read-out: MTD (as stated in dosage instructions)): ~70 mg/kg | MTD ([2]; Table 15 (Example 44), mice, six per group, monitored for 14 d, read-out: MTD): 75 mg/kg | MTD ([2]; mice, monitored for 14 d, Table 4, read-out: MTD): 75 mg/kg | MTD ([2]; mice, monitored for 14 d, Table 9, read-out: MTD): 75 mg/kg | IC50 [3]: 0.11 µg/mL (≈ 0.187 µM) | Mouse weight (%) [4, 15]: +35% | colo320 (colorectal cancer cell) growth rate (%) [4, 15]: 815.39% | Mouse weight (%) [4, 16]: +35% | colo320 (colorectal cancer cell) growth rate (%) [4, 16]: 815.39% | Mouse weight (%) [4, 17]: +35% | colo320 (colorectal cancer cell) growth rate (%) [4, 17]: 815.39% | Mouse weight (%) [4, 18]: +35% | colo320 (colorectal cancer cell) growth rate (%) [4, 18]: 815.39% | IC50 ([5]; Table 1, read-out: IC50 SKBR3 (breast cancer tissue)): 0.25 µg/mL (≈ 0.426 µM) | IC50 ([5]; Table 6, read-out: IC50 Breast cancer tissue (SKBR3)): 0.25 µg/mL (≈ 0.426 µM) | IC50 ([6]; Table 1, read-out: IC50 A549 (non-small cell lung cancer)): 0.11 µg/mL (≈ 0.187 µM) | IC50 ([6]; Table 6, read-out: IC50 Non-small cell lung cancer tissue (A549)): 0.11 µg/mL (≈ 0.187 µM) | IC50 (A2780 (ovarian cancer); Table 1, read-out: IC50 A2780 (ovarian cancer)): 0.16 µg/mL (≈ 0.273 µM) | IC50 (A2780 (ovarian cancer); Table 6, read-out: IC50 Ovarian cancer tissue (A2780)): 0.16 µg/mL (≈ 0.273 µM) | IC50 (SJSA-1 (sarcoma tissue); Table 1, read-out: IC50 SJSA-1 (sarcoma tissue)): 0.11 µg/mL (≈ 0.187 µM) | IC50 (SJSA-1 (sarcoma tissue); Table 6, read-out: IC50 Sarcoma tissue (SJSA-1)): 0.11 µg/mL (≈ 0.187 µM)

CCN(CCc1c2c(nc3ccccc13)-c1cc3c(c(=O)n1C2)COC(=O)[C@]3(O)CC)C(=O)CNC(=O)[C@H](CC(N)=O)NC(=O)[C@H](C)NC(=O)CNC(=O)CCOCCOCCOCCOCCOCCOCCNC(=O)CCN1C(=O)C=CC1=O [MI-6PEG-GANG-D2] ({Propanoyl(3-maleimido)-PEG6}-GANG-{NEt(2-(20S-CPT-7-yl)ethyl)})
Mouse weight (%) [1, 19]: +18% | SJSA-1 (sarcoma tissue) mean tumor volume (mm^3) [1, 19]: 1065.2 mm^3 | SJSA-1 (sarcoma) Growth rate (%) [1, 19]: 918.28% | Percentage of release efficiency (%) Small cell lung cancer tissue (NCI-H841) [7]: 63.1% | Percentage of release efficiency (%) Non-small cell lung cancer tissue (A549) [8]: 65.9% | MTD at 14 d ([2]; mice, monitored for 14 d, Table 4): 200 mg/kg | Percentage of release efficiency (%) Ovarian cancer tissue (A2780) [9]: 69.9% | Percentage of release efficiency (%) Heart tissue [10]: 1.7% | Percentage of release efficiency (%) Breast cancer tissue (SKBR3) [11]: 68.8% | Mouse weight (%) [4, 20]: +39% | colo320 (colorectal cancer cell) growth rate (%) [4, 20]: 450.72% | colo320 (colorectal cancer cell) mean tumor volume (mm^3) [4, 20]: 499.2 mm^3 | Mouse weight (%) [4, 21]: +39% | colo320 (colorectal cancer cell) growth rate (%) [4, 21]: 450.72% | colo320 (colorectal cancer cell) mean tumor volume (mm^3) [4, 21]: 499.2 mm^3 | Percentage of release efficiency (%) Sarcoma tissue (SJSA1) [12]: 88.4%
